Legend:
HBsAg [1] = test: In vitro combination study, HBsAg CLIA, MacSynergy II; assay type: cell-based, hepatitis B virus
Experimental: In vitro combination studies were conducted using the method of Prichard & Shipman, 1990, Antiviral Res. 14(4-5):181-205, and Prichard, et al., MacSynergy II). The HepG2.2.15 cell culture system is a cell line derived from human hepatoblastoma HepG2 cells, that have been stably transfected with the adw2-subtype HBV genome (Sells, et al., 1987, Proc. Natl. Acad. Sci. U.S.A 84:1005-1009). HepG2.2.15 cells secrete Dane-like viral particles, produce HBV DNA, and produce the viral proteins, HBeAg and HBsAg.
Non-limiting examples of HBV RNA destabilizers are Compound A and Compound B. The EC50 values of these agents are shown in Table 12. Although inhibition of HBV DNA, RNA and proteins can be determined in the presence of the compounds of the invention and LNPs (both referred to herein as “agents”), the assay that can quantitatively measure the level of HBsAg was used in this study. To test the agent combinations, HepG2.2.15 (30,000 cells/well) were plated in 96 well tissue-culture treated microtiter plates in DMEM+L-Glutamine medium supplemented with 1% penicillin-streptomycin, 20 μg/mL geneticin (G418), 10% fetal bovine serum, and incubated in a humidified incubator at 37° C. and 5% CO2 overnight. The next day, the cells were replenished with fresh medium followed by the addition of compound of the invention (dissolved in 100% DMSO), and LNP (dissolved in 100% RPMI medium). The agents were added to cells in a checkerboard fashion. The microtiter cell plates were incubated for a total duration of 6 days in a humidified incubator at 37° C. and 5% CO2. On the 3rd day of incubation, the cells were replenished with fresh medium and agents. The serial dilutions spanned concentration ranges respective to the EC50 value of each agent, with the final DMSO concentration of the assay being 0.5%. In addition to combination testing of the agents in a checkerboard fashion, the compound and LNP were also tested alone.
Untreated positive control samples (0.5% DMSO in media) were included on each plate in multiple wells. Following a 6 day-incubation, media was removed from treated cells for use in an HBsAg chemiluminescence immunoassay (CLIA) (Autobio Diagnostics, Cat No. CL0310-2). An HBsAg standard curve was generated to verify that the levels of HBsAg quantification were within the detection limits of the assay. The remaining inhibitor-treated cells were assessed for cytotoxicity by determination of the intracellular adenosine triphosphate (ATP) using a Cell-Titer Glo reagent (Promega) as per manufacturers instructions and by microscopic analysis of the cells throughout the duration of inhibitor treatment. Cell viability was calculated as a percentage of the untreated positive control wells.
The plates were read using an EnVision multimode plate reader (PerkinElmer Model 2104). […] The RLU data from the single agent treated cells were analyzed using XL-Fit module in Microsoft Excel to determine EC50 values using a 4-parameter curve fitting algorithm.

HBsAg [2] = test: HBsAg assay; assay type: cell-based, hepatitis B virus; conditions: Hepatitis B virus, HepG2.2.15, 144 h, read-out: sAg EC50, μM, HepG2.2.15 cells, day 6
In short: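 HepG2.2.15 cells were treated with serially diluted compounds (0.5% DMSO), with medium and compound renewed after 2-3 days. Secreted HBsAg measured at day 6 by chemiluminescence immunoassay; EC50 from dose-response curves. Viability assessed in parallel by CellTiter-Glo.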

[3] = Compound A 0.0001 μM, LNP-1 0.0025, 0.00079, 0.00025, 7.9E−05, 2.5E−05, 0 μM
[4] = Compound A 0.000316 μM, LNP-1 0.0025, 0.00079, 0.00025, 7.9E−05, 2.5E−05, 0 μM
[5] = Compound A 0.001 μM, LNP-1 0.0025, 0.00079, 0.00025, 7.9E−05, 2.5E−05, 0 μM
[6] = Compound A 0.00316 μM, LNP-1 0.0025, 0.00079, 0.00025, 7.9E−05, 2.5E−05, 0 μM
[7] = Compound A 0.1 μM, LNP-1 0.0025, 0.00079, 0.00025, 7.9E−05, 2.5E−05, 0 μM
[8] = Compound A 1.0E−05 μM, LNP-1 0.0025, 0.00079, 0.00025, 7.9E−05, 2.5E−05, 0 μM
[9] = Compound A 1.0E−05 μM, LNP-2 0.0025, 0.00079, 0.00025, 7.9E−05, 2.5E−05, 0 μM
[10] = Compound A 1.00E−06 μM, LNP-1 0.0025, 0.00079, 0.00025, 7.9E−05, 2.5E−05, 0 μM
[11] = Compound A 1.00E−06 μM, LNP-2 0.0025, 0.00079, 0.00025, 7.9E−05, 2.5E−05, 0 μM
[12] = Compound A 3.16E−06 μM, LNP-1 0.0025, 0.00079, 0.00025, 7.9E−05, 2.5E−05, 0 μM
[13] = Compound A 3.16E−06 μM, LNP-2 0.0025, 0.00079, 0.00025, 7.9E−05, 2.5E−05, 0 μM
[14] = Compound A 3.17E−05 μM, LNP-1 0.0025, 0.00079, 0.00025, 7.9E−05, 2.5E−05, 0 μM
[15] = Compound A 3.17E−05 μM, LNP-2 0.0025, 0.00079, 0.00025, 7.9E−05, 2.5E−05, 0 μM

**Q.** Which results are given for COCCCOc1cc2c(nc1OC)-c1cc(=O)c(C(=O)O)cn1[C@H](C(C)C)C2 [Compound A]?
**A.** Additive % Inhibition (HBsAg) versus negative control (HBsAg [1]; [3]): 47.52%; Avg % Inhibition (HBsAg) versus negative control (HBsAg [1]; [3]): 47.52%; Additive % Inhibition (HBsAg) versus negative control (HBsAg [1]; Compound A 0.0001 μM, LNP-2 0.0025, 0.00079, 0.00025, 7.9E−05, 2.5E−05, 0 μM): 48.07%; Avg % Inhibition (HBsAg) versus negative control (HBsAg [1]; Compound A 0.0001 μM, rows r14-r19 = LNP-2 0.0025, 0.00079, 0.00025, 7.9E−05, 2.5E−05, 0 μM): 48.07%; Additive % Inhibition (HBsAg) versus negative control (HBsAg [1]; [4]): 66.21%; Avg % Inhibition (HBsAg) versus negative control (HBsAg [1]; [4]): 66.21%; Additive % Inhibition (HBsAg) versus negative control (HBsAg [1]; Compound A 0.000316 μM, LNP-2 0.0025, 0.00079, 0.00025, 7.9E−05, 2.5E−05, 0 μM): 74.6%; Avg % Inhibition (HBsAg) versus negative control (HBsAg [1]; Compound A 0.000316 μM, rows r14-r19 = LNP-2 0.0025, 0.00079, 0.00025, 7.9E−05, 2.5E−05, 0 μM): 74.6%; Additive % Inhibition (HBsAg) versus negative control (HBsAg [1]; [5]): 84.38%; Avg % Inhibition (HBsAg) versus negative control (HBsAg [1]; [5]): 84.38%; Additive % Inhibition (HBsAg) versus negative control (HBsAg [1]; Compound A 0.001 μM, LNP-2 0.0025, 0.00079, 0.00025, 7.9E−05, 2.5E−05, 0 μM): 87.41%; Avg % Inhibition (HBsAg) versus negative control (HBsAg [1]; Compound A 0.001 μM, rows r14-r19 = LNP-2 0.0025, 0.00079, 0.00025, 7.9E−05, 2.5E−05, 0 μM): 87.41%; Additive % Inhibition (HBsAg) versus negative control (HBsAg [1]; [6]): 90.37%; Avg % Inhibition (HBsAg) versus negative control (HBsAg [1]; [6]): 90.37%; Additive % Inhibition (HBsAg) versus negative control (HBsAg [1]; Compound A 0.00316 μM, LNP-2 0.0025, 0.00079, 0.00025, 7.9E−05, 2.5E−05, 0 μM): 92.04%; Avg % Inhibition (HBsAg) versus negative control (HBsAg [1]; Compound A 0.00316 μM, rows r14-r19 = LNP-2 0.0025, 0.00079, 0.00025, 7.9E−05, 2.5E−05, 0 μM): 92.04%; Additive % Inhibition (HBsAg) versus negative control (HBsAg [1]; [7]): 92.38%; Avg % Inhibition (HBsAg) versus negative control (HBsAg [1]; [7]): 92.38%; Additive % Inhibition (HBsAg) versus negative control (HBsAg [1]; Compound A 0.1 μM, LNP-2 0.0025, 0.00079, 0.00025, 7.9E−05, 2.5E−05, 0 μM): 93.74%; Avg % Inhibition (HBsAg) versus negative control (HBsAg [1]; Compound A 0.1 μM, rows r14-r19 = LNP-2 0.0025, 0.00079, 0.00025, 7.9E−05, 2.5E−05, 0 μM): 93.74%; Additive % Inhibition (HBsAg) versus negative control (HBsAg [1]; [8]): 16.81%; Avg % Inhibition (HBsAg) versus negative control (HBsAg [1]; [8]): 16.81%; Additive % Inhibition (HBsAg) versus negative control (HBsAg [1]; [9]): 27.46%; Avg % Inhibition (HBsAg) versus negative control (HBsAg [1]; [9]): 27.46%; Additive % Inhibition (HBsAg) versus negative control (HBsAg [1]; [10]): 17.73%; Avg % Inhibition (HBsAg) versus negative control (HBsAg [1]; [10]): 17.73%; Additive % Inhibition (HBsAg) versus negative control (HBsAg [1]; [11]): 16%; Avg % Inhibition (HBsAg) versus negative control (HBsAg [1]; [11]): 16%; Additive % Inhibition (HBsAg) versus negative control (HBsAg [1]; [12]): 8.39%; Avg % Inhibition (HBsAg) versus negative control (HBsAg [1]; [12]): 8.39%; Additive % Inhibition (HBsAg) versus negative control (HBsAg [1]; [13]): 20.62%; Avg % Inhibition (HBsAg) versus negative control (HBsAg [1]; [13]): 20.62%; Additive % Inhibition (HBsAg) versus negative control (HBsAg [1]; [14]): 23.55%; Avg % Inhibition (HBsAg) versus negative control (HBsAg [1]; [14]): 23.55%; Additive % Inhibition (HBsAg) versus negative control (HBsAg [1]; [15]): 34.41%; Avg % Inhibition (HBsAg) versus negative control (HBsAg [1]; [15]): 34.41%; EC50 (HBsAg [1]; HepG2.2.15 cell culture, HBsAg quantitation by CLIA, read-out: 1st Inhibitor EC50): 1 nM

**Q.** For COCCCNc1cc2c(cc1Cl)-c1cc(=O)c(C(=O)O)cn1[C@H](C(C)C)CO2 [Example 61, (R)-2-Chloro-7-isopropyl-3-((3-methoxypropyl)amino)-11-oxo-6,7-dihydro-11H-benzo[f]pyrido[1,2-d][1,4]oxazepine-10-carboxylic acid], which EC50 (HBsAg [2]) is on record?
**A.** 0.023 µM

**Q.** With CCOP(=O)(OCC)c1cn2c(cc1=O)-c1cc(Cl)c(OCCCOC)cc1CC2C(C)(C)C (stereo not drawn) [Example 105, Diethyl (6-(tert-butyl)-10-chloro-9-(3-methoxypropoxy)-2-oxo-6,7-dihydro-2H-pyrido[2,1-a]isoquinolin-3-yl)phosphonate] as the molecule, how does the EC50 (HBsAg [2]) read?
**A.** 6.1 µM

**Q.** Which EC50 (HBsAg [2]) does the source give for COCCCOc1cc2c(nc1OC)-c1cc(=O)c(C(=O)O)cn1C(C)(C(C)(C)C)C2 (stereo not drawn) [Example 158, 6-(Tert-butyl)-2-methoxy-3-(3-methoxypropoxy)-6-methyl-10-oxo-5,10-dihydro-6H-pyrido[1,2-h][1,7]naphthyridine-9-carboxylic acid] here?
**A.** 0.001 µM

**Q.** With CC(C)[C@@H]1COc2cc(OCCOCCBr)c(Cl)cc2-c2cc(=O)c(C(=O)O)cn21 [Example 41, (R)-3-(2-(2-Bromoethoxy)ethoxy)-2-chloro-7-isopropyl-11-oxo-6,7-dihydro-11H-benzo[f]pyrido[1,2-d][1,4]oxazepine-10-carboxylic acid] as the molecule, how does the EC50 (HBsAg [2]) read?
**A.** 0.1 µM

**Q.** How did the EC50 (HBsAg [2]) turn out when COCCCOc1cc2c(nc1Cl)-c1cc(=O)c(C(=O)O)cn1[C@H](C(C)C)CO2 [Example 68, (R)-2-Chloro-7-isopropyl-3-(3-methoxypropoxy)-11-oxo-6,7-dihydro-11H-dipyrido[1,2-d:2′,3′-f][1,4]oxazepine-10-carboxylic acid] was run?
**A.** 0.017 µM
